SMILES strings stand for the structures. Where a name gives a salt, the structure may show the parent alone. Read-outs that look alike come from different tables or passages of the source.

Series [1] concerns the target T1, catalytic domain of human Bub1 (amino acids 704-1085) (Homo sapiens, UniProt O43683).
T1 construct: catalytic domain of human Bub1 (amino acids 704-1085); His6 (N); made in house; host or cells: Hi5 insect cells
The series can be described thus: Equilibrium probe competition assay (TR-FRET kinase binding assay). As to conditions: read-out: Assay 5 IC50. As to the method:
The half-life of prodrugs (Table 3) poses a challenge for the verification of their biological activity. The Bub1 enzymatic activity assay (as per Biological Assay 1.0 infra) requires a minimum reaction time of 60 minutes in order to be able to assess the inhibitory activity of the compounds. During this time typically 20% to 60% of the prodrugs have been already converted to their corresponding drugs at the pH of 7.5 at which the assay is performed. Ideally one would perform the biological assay at a pH at which the prodrug is stable (e.g. pH 4). […] Alternatively, an assay requiring shorter incubation times would better estimate the binding affinities of the prodrugs. […] Extrapolating the stability data from Tables 3 and 4, one would expect at this time point most of the compound present in the test solution to be the prodrug.
FIGS. 1 and 2 combine the results from Biological Assay 5 with those from Biological Assay 6. The binding affinities over time of drug and prodrug pairs are shown as pIC50 together with the prodrug stability, and the pIC50 to be expected if only the drug present in the sample was responsible for the activity in the assay. Extrapolating the pIC50 from these graphs to time 0 (at which 100% of prodrug is present in the sample), the actual affinity of the drug and prodrug can be inferred. Secondly, looking at the differences between expected and real pIC50 an estimate can be made about the contribution of the prodrug to the observed activity.
Biological Assay 5.0: Equilibrium Probe Competition Assay:
Bub1 binding affinity of compounds described in the present invention were quantified using a time-resolved fluorescence energy transfer (TR-FRET) kinase binding assay which measures displacement of the synthetic fluorescent probe 5-[({2-[2-({2-[1-(4-ethoxy-2,6-difluorobenzyl)-1H-indazol-3-yl]-4-(pyridin-4-ylamino)pyrimidin-5-yl}oxy)ethoxy]ethyl}carbamothioyl)amino]-2-(6-hydroxy-3-oxo-3H-xanthen-9-yl)benzoic acid (6-5-1) by the (recombinant) catalytic domain of human Bub1 (amino acids 704-1085). The enzyme was expressed in Hi5 insect cells with N-terminal 6×His/AviTag® sequences, purified by affinity- (Ni-NTA) and size exclusion chromatography and site-specific biotinylated ex-vivo using a commercially available kit (Avidity).
In a typical assay 11 different concentrations of each compound (0.1 nM, 0.33 nM, 1.1 nM, 3.8 nM, 13 nM, 44 nM, 0.15 μM, 0.51 μM, 1.7 μM, 5.9 μM and 20 μM) were tested in duplicate within the same microtiter plate. To this end, 100-fold concentrated compound solutions (in DMSO) were made by serial dilution (1:3.4) of freshly prepared 2 mM stocks in a clear low volume 384-well source microtiter plate (Greiner Bio-One, Frickenhausen, Germany), from which 50 nl of compounds were transferred into a black low volume test microtiter plate from the same supplier. Subsequently 2 μL of a solution containing biotinylated Bub1 (the final concentration of Bub1 was adjusted depending on the activity of the enzyme lot in order to be within the linear dynamic range of the assay: typically ˜[…] were used) and 1 nM Streptavidin Terbium Cryptate (Cisbio, No. 610SATLB) in aqueous assay buffer [50 mM Tris/HCl pH 7.5, 200 mM potassium chloride (KCl), 1.0 mM dithiothreitol (DTT), 0.1 mM sodium ortho-vanadate, 1% (v/v) glycerol, 0.01% (w/v) bovine serum albumine (BSA), 0.005% (v/v) Triton X-100 (Sigma), were added to the compounds in the test plate and the mixture was incubated for 15 min at 22° C. to allow pre-equilibration of the putative enzyme-inhibitor complexes before the start of the probe competition reaction, which was initiated by the addition of 3 μL 1.67-fold concentrated solution (in assay buffer) of 6-5-1 (final concentration: 1.5 nM). The resulting mixture (5 μL final volume) was incubated at 22° C. during 0, 15, 30, 60, 120, 240 and 1440 min. […]
On the technique in general: TR-FRET usually uses a lanthanide donor and a delayed reading to cut background.

Series [2] can be described thus: Stability in buffer at various pH values (HPLC detection). The class given is physicochemical. The settings on record: 37° C., remaining prodrug; for Stability pH 4: % Test Compound after 4 h [F(t = 4 h) × 100/F(t = 0 h)]: pH 4 buffer; for Stability pH 7.4: % Test Compound after 4 h [F(t = 4 h) × 100/F(t = 0 h)]: pH 7.4 buffer. As to the method:
Stability in Buffer at Various pH Values (HPLC Detection)
0.3 mg of the test compound was solved in 0.1 ml dimethylsulfoxide and 0.4 ml acetonitrile. For complete dissolution the HPLC vial with the sample solution was sonified for about 20 seconds. Then 1.0 ml of the respective buffer solution was added and the sample was again treated in the ultrasonic bath.
• pH 4.0: Fluka buffer, Order No. 33643 (11.76 g citric acid, 2.57 g sodium chloride and 2.72 g sodium hydroxide) • pH 7.4: 90 g of sodium chloride, 13.61 g of potassium dihydrogen phosphate and 83.35 g of 1 M sodium hydroxide solution were made up to 1 L with Millipore water and then diluted 1:10. • 10 μl portions of the sample solution were analysed by HPLC at different times (0 h, 1 h, 2h, 4h and 24h) at 37° C. The peak areas in percentage were used for quantification. HPLC Method: • Agilent 1100 with DAD (G1315B), binary pump (G1312A), autosampler (G1329A), column oven (G1316A), thermostat (G1330B); column: Kromasil 100 C18, 250 mm×4 mm, 5 μm; column temperature: 37° C.; eluent A: water+5 ml of perchloric acid/litre, eluent B: acetonitrile. Gradient: • 0 min 98% A, 2% B→0-3.0 min 85% A, 15% B→3.0-8.0 min 50% A, 50% B→8.0-16.0 min 50% A, 50% B→16.0-20.0 min 10% A, 90% B→20.0-21.0 10% A, 90% B→21.0-24.0 min 98% A, 2% B→24.0-25.0 min 98% A, 2% B; flow rate: 1.5 ml/min; UV detection: 210 nm.
The ratios of the peak area (F) at different times in relation to the peak area at the starting point are shown in Table 3 for representative examples: […]

For the molecule `COc1cnc(-c2nn(Cc3c(F)cc(OCCOC(=O)[C@H](C)NC(=O)[C@@H](N)CCCCN)cc3F)c3ccccc23)nc1Nc1ccnc(C)c1` [Example 4-1-1, 2-{3,5-difluoro-4-[(3-{5-methoxy-4-[(2-methylpyridin-4-yl)amino]pyrimidin-2-yl}-1 H-indazol-1-yl)methyl]phenoxy}ethyl L-lysyl-L-alaninate, salt with trifluoroacetic acid], the IC50 (usually the concentration needed to halve the response being measured) came out at 17 nM in series [1] (Time 15 min); 10 nM in series [1] (Time 30 min); 12 nM in series [1] (Time 60 min); 10 nM in series [1] (Time 90 min); 7.2 nM in series [1] (Time 120 min); 5.8 nM in series [1] (Time 240 min). In addition, the IC50 in series [1] (Time 1440 min) was determined as 2.7 nM. Moreover, the “Stability pH 4: % Test Compound after 4 h [F(t = 4 h) × 100/F(t = 0 h)]” value (“Stability pH 4: % Test Compound” for short) in series [2] was 100%. In addition, the “Stability pH 7.4: % Test Compound after 4 h [F(t = 4 h) × 100/F(t = 0 h)]” value (from here on “Stability pH 7.4: % Test Compound”) in series [2] came to 4%.
As for `COc1cnccc1Nc1nc(-c2nn(Cc3c(F)cc(OCCOC(=O)[C@H](C)NC(=O)[C@@H](N)CCCCN)cc3F)c3ccccc23)ncc1OC` [Example 4-1-2, 2-{3,5-difluoro-4-[(3-{5-methoxy-4-[(3-methoxypyridin-4-yl)amino]pyrimidin-2-yl}-1H-indazol-1-yl)methyl]phenoxy}ethyl L-lysyl-L-alaninate, salt with trifluoroacetic acid], the IC50 is 2.7 nM in series [1] (Time 15 min); 2.3 nM in series [1] (Time 30 min); 2.2 nM in series [1] (Time 60 min); 1.3 nM in series [1] (Time 90 min); 1 nM in series [1] (Time 120 min); 0.69 nM in series [1] (Time 240 min). In addition, the IC50 in series [1] (Time 1440 min) is 0.36 nM. Moreover, the “Stability pH 4: % Test Compound” value in series [2] came out at 100%. For the same molecule, the “Stability pH 7.4: % Test Compound” value in series [2] is on record as 5%.
Take `COc1cnc(-c2nn(Cc3c(F)cc(OCCOC(=O)[C@H](C)NC(=O)[C@H](N)CCCCN)cc3F)c3ccccc23)nc1Nc1ccnc(F)c1` [Example 4-1-3, 2-{3,5-difluoro-4-[(3-{4-[(2-fluoropyridin-4-yl)amino]-5-methoxypyrimidin-2-yl}-1H-indazol-1-yl)methyl]phenoxy}ethyl D-lysyl-L-alaninate, salt with trifluoroacetic acid]: in series [2], the “Stability pH 4: % Test Compound” value is 100% and the “Stability pH 7.4: % Test Compound” value is 0%.
`COc1cnc(-c2nn(Cc3c(F)cc(OCCOC(=O)[C@H](C)NC(=O)[C@@H](N)CCCCN)cc3F)c3ccccc23)nc1Nc1ccnc(F)c1` [Example 4-1-4, 2-{3,5-difluoro-4-[(3-{4-[(2-fluoropyridin-4-yl)amino]-5-methoxypyrimidin-2-yl}-1H-indazol-1-yl)methyl]phenoxy}ethyl L-lysyl-L-alaninate, salt with trifluoroacetic acid]: in series [2], the “Stability pH 4: % Test Compound” value is recorded as 100% and the “Stability pH 7.4: % Test Compound” value amounted to 9%.
Turning to `COc1cnc(-c2nn(Cc3c(F)cc(OCCOC(=O)[C@H](C)NC(=O)[C@@H](N)CCCCN)cc3F)c3ccccc23)nc1Nc1ccncc1` [Example 6-2-1, 2-[3,5-difluoro-4-({3-[5-methoxy-4-(pyridin-4-ylamino)pyrimidin-2-yl]-1 H-indazol-1-yl}methyl)phenoxy]ethyl L-lysyl-L-alaninate, salt with trifluoroacetic acid, reference compound], in series [2], the “Stability pH 4: % Test Compound” value worked out at 100% and the “Stability pH 7.4: % Test Compound” value stood at 3%.

The values are drawn from patent US10350206B2, “Benzyl substituted indazoles as BUB1 inhibitors” (Bayer Pharma Aktiengesellschaft, priority 2014, dated 2019).
